“And” between values parts separate entries of the source, which are not always exact repeats. Equal entries are not always repeated. Where two headings read alike, the source gives them in different places. Values belong to the compound of their own block, whether it stands above or below them.
Key:
WAR–HSA complex = molecular target: T1, WAR–HSA complex (Homo sapiens, UniProt P02768); experiment: Effects of ligands on the fluorescence emission signal of WAR–HSA complex; format: binding; settings: WAR 1 μM, HSA 3.5 μM, PBS pH 7.4, λex 317 nm; for Effect on the fluorescence emission signal of WAR (WAR–HSA complex): ligand 0–10 μM, λem 379 nm
T1 construct: purchased Merck (Darmstadt, Germany) A1653
T1 sequence (P02768 25-609, one chain of several): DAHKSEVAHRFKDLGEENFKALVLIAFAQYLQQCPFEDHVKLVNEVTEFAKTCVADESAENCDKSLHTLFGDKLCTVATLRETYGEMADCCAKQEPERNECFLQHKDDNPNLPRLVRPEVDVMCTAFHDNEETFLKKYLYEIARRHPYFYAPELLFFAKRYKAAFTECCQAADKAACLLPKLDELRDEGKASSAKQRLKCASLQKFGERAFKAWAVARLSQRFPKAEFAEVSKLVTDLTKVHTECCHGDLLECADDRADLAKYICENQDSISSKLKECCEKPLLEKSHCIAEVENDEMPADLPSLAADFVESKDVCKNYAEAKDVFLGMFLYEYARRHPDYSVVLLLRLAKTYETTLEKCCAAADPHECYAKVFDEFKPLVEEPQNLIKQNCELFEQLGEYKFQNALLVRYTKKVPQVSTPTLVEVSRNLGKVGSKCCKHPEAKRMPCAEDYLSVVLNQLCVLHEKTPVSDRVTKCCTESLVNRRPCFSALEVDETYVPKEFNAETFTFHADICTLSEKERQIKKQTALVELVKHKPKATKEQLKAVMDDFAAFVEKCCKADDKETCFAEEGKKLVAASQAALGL

WAR–HSA interaction [1] = molecular target: T2, WAR–HSA interaction (Homo sapiens, UniProt P02768); experiment: Ultrafiltration: filtered fraction of WAR in the presence of HSA and ligands; format: binding; settings: WAR 1.0 μM, HSA 5.0 μM
T2 construct: purchased Merck (Darmstadt, Germany) A1653
T2 sequence (P02768 25-609): as the sequence (P02768 25-609, one chain of several) above
Protocol: Amicon Ultra-0.5 centrifugal filters (Merck, Darmstadt, Germany) with 30 kDa molecular weight cut-off (MWCO) value were applied. […] Before ultrafiltration, filter units were washed once with water (500 μL) then once with PBS (500 μL). […] A 500 μL aliquot of samples was transferred to the filter and centrifuged for 10 min at 7500 g and 25 °C (fixed angle rotor).
(§1) Chromatographic data were evaluated employing ChromNAV2 software (Jasco, Tokyo, Japan). […] Briefly, samples (20 μL) were driven through a guard column (SecurityGuard C18, 4.0 × 3.0 mm; Phenomenex, Torrance, CA, USA) linked to a Nova-Pak C18 analytical column (150 × 3.9 mm, 4 μm; Waters, Milford, MA, USA). The isocratic elution was performed at room temperature with 1.0 mL/min flow rate applying sodium phosphate buffer (20 mM, pH 7.0), methanol, and acetonitrile (70:25:5 v/v%) as the mobile phase.

[2] = molecular target: T3, human serum albumin (HSA) (Homo sapiens, UniProt P02768); experiment: Fluorescence quenching of HSA by Heme site ligands; format: binding; settings: HSA 2 μM; for Fluorescence Quenching Hyperquad logK / Kd: K unit L/mol; for Fluorescence Quenching Stern–Volmer Plot logKSV: KSV unit L/mol; for Kd: read-out: Fluorescence Quenching Hyperquad logK (converted)
T3 construct: purchased Merck (Darmstadt, Germany) A1653
T3 sequence (P02768 25-609): as the sequence (P02768 25-609, one chain of several) above
Protocol: Fluorescence spectra were recorded in PBS (pH 7.4) at 25 °C, employing a Hitachi F-4500 fluorometer (Tokyo, Japan). Binding constants of BIL, BVD, HEM, and MO were also determined based on fluorescence quenching studies (λex = 295 nm). Emission spectra of HSA (2.0 μM) were recorded in the absence and presence of the increasing concentrations of Heme site ligands (0.0, 0.5, 1.0, 2.0, 3.0, 5.0, 7.0, 10, and 15 μM). Before the evaluation of emission intensity data at 340 nm, the inner-filter effect of ligand molecules was corrected using the following equation [60, 61]:(8) Icor=Iobs×e^(Aex+Aem)/2 where Icor and Iobs are the corrected and observed fluorescence emission intensities, respectively; Aex and Aem are the absorbance values of Heme site ligands at 295 and 340 nm, respectively.

[3] = molecular target: T3, human serum albumin (HSA); experiment: UV-Vis spectroscopic studies: HSA-induced increase in the absorbance of Heme site ligands; format: binding; settings: for Higher binding constant by Hyperquad evaluation of UV-Vis data: compared with quenching studies and Scatchard plot evaluation; for Kd at 5 μM: human, human serum albumin (HSA) solution in PBS
Protocol: UV-Vis spectra were recorded in PBS (pH 7.4) at 25 °C, employing a Jasco V730 UV-Vis spectrophotometer (Tokyo, Japan). Absorption spectra of Heme site ligands (5.0 μM each) have been recorded without and with increasing concentrations of HSA (0.0, 0.2, 0.5, 0.7, 1.0, 1.5, 2.0, 5.0, 10, and 15 μM). Binding constants (K) of ligand–albumin complexes were determined based on the HSA-induced increase in their absorbance (at 480 nm for BIL, at 390 nm for BVD, at 400 nm for HEM, and at 460 nm for MO). […] Binding constants (K; unit: L/mol) were calculated with linear and non-linear fitting, using the Scatchard equation [58] and the Hyperquad2006 software, respectively. The Scatchard equation for 1:1 binding model follows:(1) (A−A0)/[HSA]0=(Aligand−HSA−A0)×K−(A−A0)×K where A0 and A are the absorbance values of the ligand in the absence and presence of HSA, respectively; Aligand-HSA is the absorbance when each ligand molecule bound to HSA, and [HSA] is the concentration of albumin (unit: mol/L).
The following equations are implemented in the Hyperquad program code: (2) aLIGAND+bHSA ↔LIGANDaHSAb (3) βab=[LIGANDaHSAb]/[LIGAND]^a[HSA]^b where a and b indicate the stoichiometry associated with the equilibria in the solution. All equilibrium constants are defined as overall association constants (β):(4) LIGAND+HSA ↔LIGAND HSA; β1=[LIGAND HSA]/[LIGAND][HSA] (5) 2 LIGAND+HSA ↔LIGAND2 HSA; β2=[LIGAND2HSA]/[LIGAND]^2[HSA] (6) aLIGAND+HSA ↔LIGANDaHSA; βa=[LIGANDaHSA]/[LIGAND]^a[HSA]
The stepwise association constants (K) are defined by β:(7) β1=K1; β2=K1×K2; βa=K1×K2×…×Ka
During data evaluation the stoichiometry and association constants of the ligand binding process were calculated using the lowest standard deviation model.

HSA = settings: cited from earlier work
WAR–HSA interaction [4] = molecular target: T2, WAR–HSA interaction; experiment: Ultracentrifugation: WAR in the supernatant in the presence of HSA and BIL or MO; format: binding; settings: WAR 1.0 μM, HSA 3.0 μM, ligand 5 or 20 μM, PBS pH 7.4; 170,000× g, 16 h, 20 °C; HPLC-FLD
Protocol: With the optimal conditions of ultracentrifugation, we can sediment the albumin fraction of a solution without the disruption of ligand–HSA interactions. Consequently, the free fraction of a ligand can be quantified from the supernatant. […] In 11 × 34 mm PC tubes (Beckman Coulter, Brea, CA, USA), a 900 μL aliquot of samples was centrifuged for 16 h at 170,000× g and 20 °C applying a Beckman Coulter Optima MAX-XP tabletop ultracentrifuge (with MLA-130 fixed-angle rotor). Then a 200 μL volume of the supernatant was carefully removed and directly analyzed by HPLC-FLD (see in Section 3.6).
as §1, with “We applied an integrated HPLC system (Jasco, Tokyo, Japan) built up from an autosampler (AS-4050), a binary pump (PU-4180), and a fluorescence detector (FP-920). Chromatographic” for “Chromatographic”

[5] = cited from earlier work
[6] = ligand 0–20 μM, PBS pH 7.4, 30 kDa MWCO, HPLC-FLD
[7] = evaluated in the 0.5–3 µM concentration range, PBS pH 7.4
[8] = evaluated in the 3–15 µM concentration range, PBS pH 7.4
[9] = linear fitting, whole ligand range 0–15 μM, PBS pH 7.4, λex 295 nm, λem 340 nm, mean ± SEM
[10] = non-linear fitting, whole ligand range 0–15 μM, PBS pH 7.4, mean ± SEM
[11] = linear fitting, K unit L/mol, ligand 5 μM, HSA 0–15 μM, PBS pH 7.4, 25 °C, mean ± SEM, read-out: UV-Vis Spectroscopy Scatchard Plot logK (converted)
[12] = non-linear fitting, K unit L/mol, ligand 5 μM, HSA 0–15 μM, PBS pH 7.4, 25 °C, mean ± SEM, read-out: UV-Vis Spectroscopy Hyperquad logK (converted)

Compound: C=CC1=C(C)c2cc3[n-]c(cc4[n-]c(cc5nc(cc1n2)C(C)=C5C=C)c(C)c4CCC(=O)O)c(CCC(=O)O)c3C.[Fe+2] [heme]
Effect on the binding affinity of certain Site I ligands toward HSA (HSA; Site I ligands: abacavir, efavirenz, zidovudine, furosemide, indomethacin, phenylbutazone): strongly decrease
Effect on the binding constant of the WAR–HSA complex (HSA): only slightly reduced

Compound: C=CC1=C(C)/C(=C/c2[nH]c(Cc3[nH]c(/C=C4\NC(=O)C(C)=C4C=C)c(C)c3CCC(=O)O)c(CCC(=O)O)c2C)NC1=O [BIL, bilirubin]
Effect on the unbound fraction of WAR in the supernatant (ultracentrifugation) (WAR–HSA interaction [4]): significantly increased
Fluorescence Quenching Stern–Volmer Plot logKSV [2, 9]: 5.26 ± 0.01
Kd [2, 10]: 4.47 µM
Effect on the fluorescence emission signal of WAR (WAR–HSA complex) (WAR–HSA complex): strongly reduced
Higher binding constant by Hyperquad evaluation of UV-Vis data [3]: approximately 100 fold
Kd [3, 11]: 1.48 µM
Kd [3, 12]: 0.0295 µM
Effect on the filtered fraction of WAR (ultrafiltration) (WAR–HSA interaction [1]; [6]): strongly increased
Effect on albumin binding of WAR (ultrafiltration) (WAR–HSA interaction [1]; ligand 5 μM): disrupted
Effect on albumin binding of WAR (ultrafiltration) (WAR–HSA interaction [1]; ligand 20 μM): almost completely abolished

Compound: CC(=O)CC(c1ccccc1)c1c(O)c2ccccc2oc1=O (stereo not drawn) [WAR, warfarin]
binding constant (K) of WAR–HSA complex (HSA; spectroscopic, affinity chromatography and ultracentrifugation experiments): approximately 2 × 10^5 L/mol
plasma protein binding [5]: ≈ 99%

Further lines, with some results ahead:

Increase in the emission intensity at 379 nm (WAR–HSA complex) (WAR–HSA complex; fatty acid 0–10 μM): ~2.5 fold
Effect on the filtered fraction of WAR (ultrafiltration) (WAR–HSA interaction [1]; [6]): decreased
Compound: CCCCCCCCCCCCCCCCCC(=O)O [stearic acid]

Fluorescence Quenching Hyperquad logK [2, 7]: 5.34 ± 0.01
Fluorescence Quenching Stern–Volmer Plot logKSV [2, 7]: 5.23 ± 0.02
Fluorescence Quenching Hyperquad logK [2, 8]: 5.53 ± 0.02
Fluorescence Quenching Stern–Volmer Plot logKSV [2, 8]: 5.55 ± 0.03
Fluorescence Quenching Stern–Volmer Plot logKSV [2, 9]: 5.54 ± 0.02
Fluorescence Quenching Hyperquad logK [2, 10]: 5.49 ± 0.02
Effect on the fluorescence emission signal of WAR (WAR–HSA complex) (WAR–HSA complex): strongly reduced
Higher binding constant by Hyperquad evaluation of UV-Vis data [3]: approximately 100 fold
UV-Vis Spectroscopy Scatchard Plot logK ([3]; linear fitting, K unit L/mol, ligand 5 μM, HSA 0–15 μM, PBS pH 7.4, 25 °C, mean ± SEM): 5.74 ± 0.04
UV-Vis Spectroscopy Hyperquad logK ([3]; non-linear fitting, K unit L/mol, ligand 5 μM, HSA 0–15 μM, PBS pH 7.4, 25 °C, mean ± SEM): 7.4 and 7.35 ± 0.03
Effect on the filtered fraction of WAR (ultrafiltration) (WAR–HSA interaction [1]; ligand 1–5 μM): decreased
Effect on the filtered fraction of WAR (ultrafiltration) (WAR–HSA interaction [1]; ligand 10 and 20 μM): gradual elevation
Compound: hemin

Fluorescence Quenching Stern–Volmer Plot logKSV [2, 9]: 5.37 ± 0.03
Kd [2, 10]: 3.55 µM
Effect on the fluorescence emission signal of WAR (WAR–HSA complex) (WAR–HSA complex): strongly reduced
Kd [3, 11]: 11 µM
Kd [3, 12]: 2.82 µM
Compound: C=CC1=C(C)/C(=C/C2=NC(=C\c3[nH]c(/C=C4\NC(=O)C(C)=C4C=C)c(C)c3CCC(=O)O)/C(CCC(=O)O)=C2C)NC1=O [BVD, biliverdin]
logK of the BVD–HSA complex (HSA; K in L/mol): ≈ 6
binding constant of the BVD–HSA complex (HSA): approximately 10^6 L/mol

Effect on the unbound fraction of WAR in the supernatant (ultracentrifugation) (WAR–HSA interaction [4]): considerably decreased
Kd ([2]; human, human serum albumin (HSA) solution in PBS, non-linear fitting, whole ligand range 0–15 μM, PBS pH 7.4, mean ± SEM): 14.8 µM
Fluorescence Quenching Stern–Volmer Plot logKSV [2, 9]: 4.76 ± 0.02
Effect on the fluorescence emission signal of WAR (WAR–HSA complex) (WAR–HSA complex): strongly reduced
Kd at 5 μM ([3]; pH 7.4, linear fitting, K unit L/mol, ligand 5 μM, HSA 0–15 μM, PBS pH 7.4, 25 °C, mean ± SEM, read-out: UV-Vis Spectroscopy Scatchard Plot logK (converted)): 64.6 µM
Kd at 5 μM ([3]; pH 7.4, non-linear fitting, K unit L/mol, ligand 5 μM, HSA 0–15 μM, PBS pH 7.4, 25 °C, mean ± SEM, read-out: UV-Vis Spectroscopy Hyperquad logK (converted)): 18.2 µM
Effect on the filtered fraction of WAR (ultrafiltration) (WAR–HSA interaction [1]; ligand 1 μM): significantly reduced
Effect on the filtered fraction of WAR (ultrafiltration) (WAR–HSA interaction [1]; ligand 2–20 μM): further gradual decrease
Compound: CN(C)c1ccc(/N=N/c2ccc(S(=O)(=O)O)cc2)cc1 [MO, methyl orange]
logK of the MO–HSA complex (HSA; K in L/mol): 5.4
binding constant of the MO–HSA complex (HSA): 230000 L/mol

From paper PMC9694159 (International Journal of Molecular Sciences, 2022)
